The assay deals with lashes and adjacent hairs of patients. The assay can be described thus: Lash and hair growth observed in glaucoma patients treated in one eye. In kind it is in vivo, human. Conditions: glaucoma patient treated in only one eye. From the text: In the course of treating patients having glaucoma, treatment may only be appropriate in one eye. […] The lash appearance on the lids of the treated eyes would have appeared quite attractive if it represented a bilateral phenomenon. As a result of its asymmetric nature, the long lashes on one side could be construed as disturbing from a cosmetic standpoint. A systemic examination was preformed as a result of the asymmetric phenomenon. It soon became apparent that this altered appearance was not an isolated finding. […] Definite differences could be identified to varying degrees in the lashes and adjacent hairs of all patients who were taking the drug on a unilateral basis for longer than 6 months.
The changes in the lashes were apparent on gross inspection in several patients once attention was focused on the issue. In those with light colored hair and lashes, the differences were only seen easily with the aid of the high magnification and lighting capabilities of the slit lamp biomicroscope. In the course of glaucoma follow-up examination, attention is generally immediately focused on the eye itself. As a result of the high power magnification needed only one eye is seen at a time and the eye is seen at a high enough power that the lashes are not in focus. […]

The values that follow come from US7705001B2, “Therapeutic substituted gamma lactams” (Allergan, Inc, priority 2008, dated 2010).

As for `CCNC(=O)CCC/C=C\C[C@@H]1[C@@H](/C=C/[C@@H](O)CCc2ccccc2)[C@H](O)C[C@@H]1O` [bimatoprost], the “lash appearance in treated eye versus non-treated eye” value was “longer, thicker, and fuller in the treated eye than in the non-treated eye”.
